Test results taken from BindingDB's records for doi:10.1016/j.bmcl.2007.08.004 (Pfizer, 2007).

Biological target: T1, 3-hydroxy-3-methylglutaryl-coenzyme A reductase (Rattus norvegicus, UniProt P51639)
T1 sequence (P51639 whole entry): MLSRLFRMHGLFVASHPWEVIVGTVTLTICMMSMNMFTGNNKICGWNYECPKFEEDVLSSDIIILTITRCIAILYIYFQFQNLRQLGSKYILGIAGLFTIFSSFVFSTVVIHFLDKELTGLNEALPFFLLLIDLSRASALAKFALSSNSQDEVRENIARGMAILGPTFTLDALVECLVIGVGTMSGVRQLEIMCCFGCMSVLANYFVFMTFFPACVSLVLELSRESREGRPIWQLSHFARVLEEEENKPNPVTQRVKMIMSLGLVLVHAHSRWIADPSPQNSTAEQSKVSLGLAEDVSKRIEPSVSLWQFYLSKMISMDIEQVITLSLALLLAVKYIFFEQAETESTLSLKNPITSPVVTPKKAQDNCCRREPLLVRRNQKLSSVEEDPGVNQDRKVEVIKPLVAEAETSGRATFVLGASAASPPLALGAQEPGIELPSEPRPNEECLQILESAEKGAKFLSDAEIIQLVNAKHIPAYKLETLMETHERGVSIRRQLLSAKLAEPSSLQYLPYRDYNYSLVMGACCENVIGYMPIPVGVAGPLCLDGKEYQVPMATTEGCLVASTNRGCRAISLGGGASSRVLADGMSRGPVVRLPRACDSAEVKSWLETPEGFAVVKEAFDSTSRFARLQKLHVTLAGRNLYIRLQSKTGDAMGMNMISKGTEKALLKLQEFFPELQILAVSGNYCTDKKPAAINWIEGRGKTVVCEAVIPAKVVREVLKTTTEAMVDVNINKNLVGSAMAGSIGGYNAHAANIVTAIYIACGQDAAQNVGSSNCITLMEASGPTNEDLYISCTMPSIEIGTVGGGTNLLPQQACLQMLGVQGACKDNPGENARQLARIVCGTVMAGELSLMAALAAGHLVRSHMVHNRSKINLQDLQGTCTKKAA
Experiment: HMG-CoA Reductase In Vitro Assay
Excerpt: Assay for HMG-CoA reductase was based on the conversion of isotopically labeled HMG-CoA to mevalonic acid using rat liver microsomes as enzyme source. The product, [14C]-mevalonic acid was lactonized and separated from excess substrate via an anion ion exchange resin column, and radioactivity was counted on a scintillation counter.

- IC50: 10 nM
SMILES: CC(C)c1c(C(=O)N2CCc3ccccc3C2)nn(-c2ccc(F)cc2)c1OC[C@@H](O)C[C@@H](O)CC(=O)O [(3R,5S)-6-{[1-(4-fluorophenyl)-4-(propan-2-yl)-3-(1,2,3,4-tetrahydroisoquinolin-2-ylcarbonyl)-1H-pyrazol-5-yl]oxy}-3,5-dihydroxyhexanoic acid]
